The values that follow are results of earlier work, collected in US20080280850A1, “Methods and Compositions for Treating Flaviviruses, Pestiviruses and Hepacivirus” (priority 2004, published 2008).

The data set relates to HCV.

Take `NC(=O)c1ncn([C@@H]2O[C@H](CO)[C@@H](O)[C@H]2O)n1` [Ribavirin, 1-[…]D-ribofuranosyl-1-1,2,4-triazole-3-carboxamide]: the “effect on serum levels of HCV-RNA” value (patients, monotherapy) is given as “does not lower serum levels of HCV-RNA”. For the same compound, the “serum amino transferase levels reduced to normal, share of patients” value (ribavirin alone) is recorded as 40%.
